Measurements as given in article PMC7615677 (Science translational medicine, 2023).
“Also recorded” adds a separate entry of the source. Where two headings read alike, the source gives them in different places.

What was measured:
[1] = tested on: hiPSc-CMs (cardiomyocytes); experiment: hiPSc-CM multielectrode (MEA) assay; assay type: cell-based, human; details: 0.37, 1.11, 3.33, 10 and 30 µM
Protocol: The hIPSc-CM assay was conducted to identify DNDI-6174-induced changes in field potential duration (FPD ≈ QT interval), total spike amplitude (TSA ≈ QRS interval) and beat rate. Inducible pluripotent stem cell-derived cardiomyocytes (hiPSc-CMs, iCell2, Cellular Dynamics) were maintained in culture medium (50,000 cells/well) for 7 days. Full media changes were done every 48 h. Following baseline recording, and right after the 1 hour compound treatment time (n=8/concentration, 5 concentrations), 1 min recording of activity was taken daily starting on Day 3 through Day 7 using the Maestro multi-electrode Array System (Axion BioSystems; 48 or 96-well plate). 3μM Quinidine was used as a control for hERG and hNaV1.5 block.

[2] = molecular target: T1, alpha1A Human Adrenoceptor GPCR (Homo sapiens, UniProt P35348); experiment: α1A antagonism IC50 determination; assay type: cell-based
T1 construct: Eurofins (contract assay)
Text: (§1) Listed values represent the percent change relative to the DMSO control activity. When an IC50 had to be determined, eight different concentrations were included. All values are the mean of assay readout duplicates.

[3] = molecular target: T2, CYP2C9 (Homo sapiens, UniProt P11712); experiment: Cytochrome P450 inhibition, human liver microsomes; assay type: in vitro ADME
T2 construct: incubation of isoform-specific substrates with human liver microsomes; from tissue; host or cells: human liver microsomes
Text: The formation of known metabolites mediated by a specific CYP isoform was monitored. CYP isoform-specific pathways (and positive control inhibitors) included CYP1A2: phenacetin O-deethylation (furafylline), CYP2B6: bupropion hydroxylation (PPP), CYP2C8: amodiaquine deethylation (quercetin) CYP2C9: tolbutamide methylhydroxylation (sulfaphenazole), CYP2C19: (S)-mephenytoin 4’-hydroxylation (ticlopidine), CYP2D6: dextromethorphan O-demethylation (quinidine), and CYP3A: midazolam 1’-hydroxylation and testosterone 6β-hydroxylation (ketoconazole). […] The organic solvent content was maintained at less than 1% (v/v). NADPH was added to initiate the reaction which was then quenched by the addition of acetonitrile containing internal standard at specified times. Concentrations of the isoform-specific metabolites were quantified by LC-MS (Waters Xevo TQD triple quadrupole MS coupled to a Waters Acquity UPLC system) relative to calibration standards prepared in pre-quenched microsomal matrix.
Time dependent inhibition was assessed using an “IC50 shift” method based on a previous publication ([44]). […] A shift in the IC50 in the presence of NADPH (relative to the absence) was used as an indication of time dependent inhibition. Reference direct and time-dependent inhibitors were included in the assays.

[4] = tested on: L. infantum; experiment: PK/PD analysis of liver burden versus cumulative unbound AUC; assay type: in vivo, hamsters; details: Hamster – L. infantum; estimated using the fitted parameters
Text: To determine the correlation between the pharmacokinetic (PK) and pharmacodynamic (PD) data, repeat dose profiles in mice and hamsters following single and twice daily dosing were simulated using the fitted parameters.
Other parameters were less well correlated to efficacy, presumably given that none reflect the cumulative exposure profile with an extended treatment regimen. […] Results for mice infected with L. donovani were similar to those for L. infantum (Table S15).

[5] = In vitro cytotoxicity assay; assay type: cell-based; details: human, U2OS human osteosarcoma cells
[6] = molecular target: T3, PDE3A (Homo sapiens, UniProt Q14432); experiment: In vitro pharmacology panel (Eurofins); assay type: biochemical
T3 construct: Eurofins (contract assay)
Text: as §1

[7] = molecular target: T4, COX2 (Homo sapiens, UniProt P35354); experiment: In vitro pharmacology panel (Eurofins); assay type: biochemical; details: read-out: activity (% of DMSO control)
T4 construct: purchased Eurofins (Cerep/DiscoverX SafetyScreen44 in vitro pharmacology panel)
Text: as §1

[8] = molecular target: T5, COX1 (Homo sapiens, UniProt P23219); experiment: In vitro pharmacology panel (Eurofins); assay type: biochemical; details: read-out: activity (% of DMSO control)
T5 construct: purchased Eurofins (Cerep/DiscoverX SafetyScreen44 in vitro pharmacology panel)
Text: as §1

[9] = molecular target: T6, PDE4D2 (Homo sapiens, UniProt Q08499); experiment: In vitro pharmacology panel (Eurofins); assay type: biochemical
T6 construct: Eurofins (contract assay)
Text: as §1

[10] = molecular target: T7, Lck kinase (Homo sapiens, UniProt P06239); experiment: In vitro pharmacology panel (Eurofins); assay type: biochemical; details: read-out: activity (% of DMSO control)
T7 construct: purchased Eurofins (Cerep/DiscoverX SafetyScreen44 in vitro pharmacology panel)
Text: as §1

[11] = molecular target: T8, acetylcholinesterase (Homo sapiens, UniProt P22303); experiment: In vitro pharmacology panel (Eurofins); assay type: biochemical; details: read-out: activity (% of DMSO control)
T8 construct: Eurofins (contract assay)
Text: as §1

[12] = In vivo pharmacokinetics; design: species or system male Sprague Dawley rats; details: for Vd: read-out: Plasma Vss
Protocol: Single dose intravenous (IV) pharmacokinetic (PK) studies in male Sprague Dawley rats and IV and oral PK studies in female BALB/c mice were conducted at Monash University. […] Blood was sampled via a cannula implanted in the carotid artery (also on the day prior to dosing) at pre-determined time points up to 24 h post-dose. Samples were transferred to vials containing heparin as an anticoagulant, gently mixed and centrifuged, and plasma separated for subsequent quantitative analysis using LC-MS. […] A dose of 25 mg/kg prepared in an aqueous suspension vehicle containing 0.5% hydroxypropyl methylcellulose, 0.5% benzyl alcohol and 0.4% polysorbate 80 (0.2 mL per mouse) was also dosed via oral gavage. Mouse blood was sampled via submandibular bleed up to 24 h post-dose (n=2 mice per time point, n=3 samples per mouse) into vials containing heparin and plasma was separated for quantitative analysis as described above.
Additional PK studies were also conducted by WuXi AppTec Co, Ltd (Shanghai, China) according to protocols reviewed and approved by DNDi. […] IV and oral formulations for rats, mice and hamsters were the same as described above. For dogs, the IV dose was administered in saline containing 2% DMSO and 3% Solutol HS-15 and the oral formulation was as described above. Blood was sampled up to 48 h post-dose into vials containing potassium EDTA as an anticoagulant, proteins were precipitated with acetonitrile and plasma was separated and assayed by LC-MS.
Single dose pharmacokinetic parameters (clearance, volume of distribution and half-life) were initially estimated using non-compartmental methods and oral bioavailability was calculated using the ratio of the dose corrected AUC after oral dosing relative to that after IV administration. Nominal doses were used in the calculations unless the measured dose differed by more than 15% from the nominal dose, in which case the measured dose was used. Where a full concentration versus time profile was obtained from a single animal, parameters were estimated for each animal and mean and standard deviations calculated. In the case of mice where sparse sampling was used with multiple animals per time point, the data analysis was conducted using the mean profile.

[13] = In vitro cytotoxicity assay; assay type: cell-based; details: human, HFF human foreskin fibroblasts
[14] = 10 µM, read-out: activity (% of DMSO control)
[15] = male, Sprague Dawley, plasma, Rat, oral 10 mg/kg
[16] = male, Sprague Dawley, rat, plasma, rats, single oral 50 mg/kg
[17] = male, Sprague Dawley, rat, plasma, rats, single oral 100 mg/kg
[18] = male, Sprague Dawley, rat, plasma, rats, single oral 300 mg/kg

T3 sequence (Q14432 whole entry): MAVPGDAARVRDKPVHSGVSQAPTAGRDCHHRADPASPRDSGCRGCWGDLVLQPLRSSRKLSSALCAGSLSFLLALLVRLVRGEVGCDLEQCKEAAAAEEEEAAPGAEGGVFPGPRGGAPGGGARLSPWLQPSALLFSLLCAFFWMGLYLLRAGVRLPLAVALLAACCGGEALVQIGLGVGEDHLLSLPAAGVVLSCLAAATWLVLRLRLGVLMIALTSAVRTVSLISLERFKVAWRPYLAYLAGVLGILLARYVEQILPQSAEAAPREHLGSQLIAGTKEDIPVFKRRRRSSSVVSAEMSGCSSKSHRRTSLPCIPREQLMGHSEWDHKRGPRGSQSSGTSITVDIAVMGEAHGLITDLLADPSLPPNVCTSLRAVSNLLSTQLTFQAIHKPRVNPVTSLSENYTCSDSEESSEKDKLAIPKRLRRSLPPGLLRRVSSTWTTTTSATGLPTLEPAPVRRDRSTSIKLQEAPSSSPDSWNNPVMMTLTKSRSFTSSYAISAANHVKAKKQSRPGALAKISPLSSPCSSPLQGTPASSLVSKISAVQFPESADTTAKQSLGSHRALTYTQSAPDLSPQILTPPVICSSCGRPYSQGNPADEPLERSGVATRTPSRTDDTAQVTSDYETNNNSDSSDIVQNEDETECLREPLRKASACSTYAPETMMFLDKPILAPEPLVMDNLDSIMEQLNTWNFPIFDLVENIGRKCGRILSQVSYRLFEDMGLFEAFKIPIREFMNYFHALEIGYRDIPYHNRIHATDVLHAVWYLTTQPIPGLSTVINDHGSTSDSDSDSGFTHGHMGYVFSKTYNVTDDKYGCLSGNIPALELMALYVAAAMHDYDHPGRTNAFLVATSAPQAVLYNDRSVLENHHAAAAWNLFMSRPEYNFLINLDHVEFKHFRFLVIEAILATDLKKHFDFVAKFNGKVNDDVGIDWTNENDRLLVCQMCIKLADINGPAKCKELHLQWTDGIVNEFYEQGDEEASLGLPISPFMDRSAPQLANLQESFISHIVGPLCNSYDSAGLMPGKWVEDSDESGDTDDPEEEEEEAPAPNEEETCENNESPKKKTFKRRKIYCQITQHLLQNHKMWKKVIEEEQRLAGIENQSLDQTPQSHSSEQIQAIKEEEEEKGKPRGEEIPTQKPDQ
T6 sequence (Q08499 303-809 limits assumed): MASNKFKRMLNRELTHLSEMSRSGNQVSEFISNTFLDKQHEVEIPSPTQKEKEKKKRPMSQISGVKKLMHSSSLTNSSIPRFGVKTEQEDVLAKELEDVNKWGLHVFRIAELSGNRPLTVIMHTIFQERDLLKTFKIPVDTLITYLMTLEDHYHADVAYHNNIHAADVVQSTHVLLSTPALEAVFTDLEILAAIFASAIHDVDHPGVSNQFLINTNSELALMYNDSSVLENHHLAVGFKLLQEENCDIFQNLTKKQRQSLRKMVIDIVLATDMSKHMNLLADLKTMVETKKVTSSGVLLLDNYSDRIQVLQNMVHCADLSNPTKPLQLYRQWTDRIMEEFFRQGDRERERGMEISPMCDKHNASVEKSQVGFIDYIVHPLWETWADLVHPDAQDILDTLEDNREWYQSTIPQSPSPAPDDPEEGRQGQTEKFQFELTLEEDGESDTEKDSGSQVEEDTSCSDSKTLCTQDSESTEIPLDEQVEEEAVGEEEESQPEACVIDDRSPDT
T2 sequence (P11712 whole entry, canonical isoform): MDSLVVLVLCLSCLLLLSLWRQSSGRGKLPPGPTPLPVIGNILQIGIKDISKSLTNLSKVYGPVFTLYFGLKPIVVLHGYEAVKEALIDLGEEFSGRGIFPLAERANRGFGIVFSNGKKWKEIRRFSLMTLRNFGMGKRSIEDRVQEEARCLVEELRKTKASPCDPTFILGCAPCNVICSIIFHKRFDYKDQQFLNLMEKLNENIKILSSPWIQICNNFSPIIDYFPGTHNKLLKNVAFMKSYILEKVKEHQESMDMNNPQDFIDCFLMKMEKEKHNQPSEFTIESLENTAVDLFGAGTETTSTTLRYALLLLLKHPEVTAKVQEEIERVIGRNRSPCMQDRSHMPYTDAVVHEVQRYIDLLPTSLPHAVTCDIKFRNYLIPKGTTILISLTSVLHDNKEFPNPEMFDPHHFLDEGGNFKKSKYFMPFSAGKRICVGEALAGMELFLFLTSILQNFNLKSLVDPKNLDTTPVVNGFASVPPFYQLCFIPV
T8 sequence (P22303 32-614): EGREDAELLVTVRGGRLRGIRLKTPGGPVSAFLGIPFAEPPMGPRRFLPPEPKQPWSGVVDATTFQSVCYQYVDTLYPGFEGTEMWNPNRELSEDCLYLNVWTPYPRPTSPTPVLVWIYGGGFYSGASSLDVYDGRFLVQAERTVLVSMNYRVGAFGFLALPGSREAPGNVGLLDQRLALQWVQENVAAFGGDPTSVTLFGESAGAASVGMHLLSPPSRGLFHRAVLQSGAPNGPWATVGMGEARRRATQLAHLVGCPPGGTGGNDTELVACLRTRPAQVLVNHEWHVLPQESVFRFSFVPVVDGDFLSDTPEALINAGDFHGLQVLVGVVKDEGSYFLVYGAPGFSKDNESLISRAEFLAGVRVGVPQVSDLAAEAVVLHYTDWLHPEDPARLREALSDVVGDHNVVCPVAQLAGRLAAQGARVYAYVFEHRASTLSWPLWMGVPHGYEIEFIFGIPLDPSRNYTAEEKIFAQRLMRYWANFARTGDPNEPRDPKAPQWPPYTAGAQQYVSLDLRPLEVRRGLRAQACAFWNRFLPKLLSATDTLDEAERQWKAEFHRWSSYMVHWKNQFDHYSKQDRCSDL
T4 sequence (P35354 18-604): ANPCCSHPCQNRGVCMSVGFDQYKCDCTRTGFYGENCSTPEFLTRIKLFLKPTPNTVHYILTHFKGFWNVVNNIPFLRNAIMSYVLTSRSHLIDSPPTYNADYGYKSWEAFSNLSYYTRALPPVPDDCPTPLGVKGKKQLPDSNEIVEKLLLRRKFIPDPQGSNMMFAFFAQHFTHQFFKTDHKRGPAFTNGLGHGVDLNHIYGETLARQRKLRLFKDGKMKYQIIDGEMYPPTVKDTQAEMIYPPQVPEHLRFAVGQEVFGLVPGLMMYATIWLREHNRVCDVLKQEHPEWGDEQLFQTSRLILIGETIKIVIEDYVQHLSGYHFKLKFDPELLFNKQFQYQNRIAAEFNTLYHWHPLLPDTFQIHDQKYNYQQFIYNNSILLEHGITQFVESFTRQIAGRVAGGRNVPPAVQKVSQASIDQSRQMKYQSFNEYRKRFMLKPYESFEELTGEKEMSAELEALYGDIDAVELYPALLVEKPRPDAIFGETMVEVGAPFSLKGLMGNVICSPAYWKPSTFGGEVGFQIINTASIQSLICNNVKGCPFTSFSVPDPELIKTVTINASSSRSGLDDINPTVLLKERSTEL
T5 sequence (P23219 24-599): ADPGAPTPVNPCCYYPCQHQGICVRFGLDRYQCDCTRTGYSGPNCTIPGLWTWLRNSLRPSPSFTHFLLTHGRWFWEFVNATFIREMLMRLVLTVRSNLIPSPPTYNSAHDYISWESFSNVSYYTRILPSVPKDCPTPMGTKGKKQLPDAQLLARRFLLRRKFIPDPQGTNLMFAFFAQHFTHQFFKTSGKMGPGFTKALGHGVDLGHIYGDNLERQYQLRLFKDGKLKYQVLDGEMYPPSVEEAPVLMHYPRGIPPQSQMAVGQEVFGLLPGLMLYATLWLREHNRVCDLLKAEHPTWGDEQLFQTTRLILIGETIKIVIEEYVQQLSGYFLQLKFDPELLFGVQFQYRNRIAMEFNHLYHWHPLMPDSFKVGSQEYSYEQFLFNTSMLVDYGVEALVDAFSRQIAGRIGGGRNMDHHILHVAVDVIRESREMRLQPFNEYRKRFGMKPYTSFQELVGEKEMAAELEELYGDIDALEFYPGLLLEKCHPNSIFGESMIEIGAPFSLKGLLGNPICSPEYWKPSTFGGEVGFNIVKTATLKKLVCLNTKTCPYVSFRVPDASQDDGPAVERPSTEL
T7 sequence (P06239 whole entry): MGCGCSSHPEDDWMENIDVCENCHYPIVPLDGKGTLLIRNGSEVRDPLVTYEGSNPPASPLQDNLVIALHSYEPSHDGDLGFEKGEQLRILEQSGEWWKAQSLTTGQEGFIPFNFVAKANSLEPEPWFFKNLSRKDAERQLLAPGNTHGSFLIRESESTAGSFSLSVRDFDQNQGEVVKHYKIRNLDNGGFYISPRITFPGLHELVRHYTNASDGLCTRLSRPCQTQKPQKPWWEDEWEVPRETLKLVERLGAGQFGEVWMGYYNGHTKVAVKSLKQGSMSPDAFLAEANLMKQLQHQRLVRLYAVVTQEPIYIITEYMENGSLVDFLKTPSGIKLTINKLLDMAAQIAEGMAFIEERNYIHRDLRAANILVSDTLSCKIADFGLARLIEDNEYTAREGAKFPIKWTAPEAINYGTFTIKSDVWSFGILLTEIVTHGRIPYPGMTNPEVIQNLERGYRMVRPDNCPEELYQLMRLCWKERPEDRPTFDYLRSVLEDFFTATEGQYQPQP
T1 sequence (P35348 whole entry): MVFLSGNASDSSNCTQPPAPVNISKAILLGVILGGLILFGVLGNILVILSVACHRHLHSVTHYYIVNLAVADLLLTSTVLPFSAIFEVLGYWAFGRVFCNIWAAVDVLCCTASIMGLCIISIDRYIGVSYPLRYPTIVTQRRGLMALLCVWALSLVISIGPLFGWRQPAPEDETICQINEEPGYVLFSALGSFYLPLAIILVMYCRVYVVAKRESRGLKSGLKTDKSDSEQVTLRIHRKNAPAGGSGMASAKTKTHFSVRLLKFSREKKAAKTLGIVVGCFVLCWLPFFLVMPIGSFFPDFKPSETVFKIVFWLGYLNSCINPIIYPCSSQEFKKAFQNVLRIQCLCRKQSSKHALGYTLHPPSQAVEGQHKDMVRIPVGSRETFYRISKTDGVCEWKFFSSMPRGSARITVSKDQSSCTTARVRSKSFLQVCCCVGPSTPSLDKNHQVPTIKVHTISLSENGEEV

Cc1[nH]c2nc(N)nc(C)c2c1-c1ccc(C#N)c2c1OCO2 [DNDI-6174]
field potential duration, spike amplitude and beat period, in words [1]: no notable change in the field potential duration; also recorded: No significant change in the field potential
IC50 [2]: 12.8 µM
IC50 ([3]; CYP2C9, read-out: Direct inhibition IC50): 14.9 µM
IC50 ([3]; without NADPH preincubation, read-out: Time-dependent inhibition IC50): 13.8 µM
unbound ED95 [4]: 3.6
CC50 [5]: > 80 µM
remaining activity at 10 µM [6, 14]: 30.1%
IC50 ([6]; human PDE3A): 3.36 µM
remaining activity at 10 µM [7]: 137%
remaining activity at 10 µM [8]: 115%
remaining activity at 10 µM [9, 14]: 27.1%
IC50 ([9]; human PDE4D2): 6.67 µM
remaining activity at 10 µM [10]: 100%
remaining activity at 10 µM [11]: 96.8%
Cmax [12, 15]: 4.21 µg/mL
Tmax [12, 15]: 4 h
bioavailability [12, 15]: 93%
half-life ([12]; male, Sprague Dawley, rat, plasma, iv, 3 mg/kg, Rat, intravenous 3.0 mg/kg, Monash University, read-out: Apparent t1/2 (converted)): 7.9 h
AUC(0-inf) ([12]; male, Sprague Dawley, rat, plasma, iv, 3 mg/kg, Rat, intravenous 3.0 mg/kg, Monash University, read-out: Plasma AUC0-inf): 23.6 µg·h/mL
clearance ([12]; male, Sprague Dawley, rat, plasma, iv, 3 mg/kg, Rat, intravenous 3.0 mg/kg, Monash University, read-out: Plasma CL): 0.127 L/h/kg
Vd ([12]; male, Sprague Dawley, rat, plasma, iv, 3 mg/kg, Rat, intravenous 3.0 mg/kg, Monash University): 1.4 L/kg
half-life ([12]; male, Sprague Dawley, rat, plasma, iv, 3 mg/kg, Rat, intravenous 3.0 mg/kg, WuXi AppTec, read-out: Apparent t1/2 (converted)): 5.3 h
AUC(0-inf) ([12]; male, Sprague Dawley, rat, plasma, iv, 3 mg/kg, Rat, intravenous 3.0 mg/kg, WuXi AppTec, read-out: Plasma AUC0-inf): 18.5 µg·h/mL
clearance ([12]; male, Sprague Dawley, rat, plasma, iv, 3 mg/kg, Rat, intravenous 3.0 mg/kg, WuXi AppTec, read-out: Plasma CL): 0.177 L/h/kg
Vd ([12]; male, Sprague Dawley, rat, plasma, iv, 3 mg/kg, Rat, intravenous 3.0 mg/kg, WuXi AppTec): 1.3 L/kg
clearance ([12]; male, Sprague Dawley, rat, plasma, iv, 3 mg/kg, Rat, read-out: Measured in vivo CLplasma): 0.15 L/h/kg
half-life ([12]; male, Sprague Dawley, rat, plasma, po, 10 mg/kg, Rat, oral 10 mg/kg, read-out: Apparent t1/2 (converted)): 7 h
AUC(0-inf) ([12]; male, Sprague Dawley, rat, plasma, po, 10 mg/kg, Rat, oral 10 mg/kg, read-out: Plasma AUC0-∞): 57.7 µg·h/mL
AUC(0-inf) ([12]; male, Sprague Dawley, rat, plasma, po, 50 mg/kg, rats, single oral 50 mg/kg, read-out: AUC0-∞): 292 µg·h/mL
half-life ([12]; male, Sprague Dawley, rat, plasma, po, 50 mg/kg, rats, single oral 50 mg/kg, read-out: T1/2 (converted)): 9.05 h
Cmax [12, 16]: 14.2 µg/mL
Tmax [12, 16]: 5.7 h
Cmax [12, 17]: 20.9 µg/mL
Tmax [12, 17]: 17 h
Cmax [12, 18]: 30.9 µg/mL
Tmax [12, 18]: 27 h
parent compound excreted unchanged in urine ([12]; rats, intravenous): < 1%
AUC0-24 (reported in AUC0-∞ line) ([12]; rats, single oral 100 mg/kg): 430 µg·h/mL
AUC0-24 (reported in AUC0-∞ line) ([12]; rats, single oral 300 mg/kg): 562 µg·h/mL
CC50 [13]: > 64 µM
